According to patent US6822003B2, “Aldose reductase inhibitor and process for preparation thereof” (Council of Scientific and Industrial Research, priority 2001, dated 2004):

Columns and labels:
solubility in solvents = format: physicochemical
[1] = molecular target: rat lens aldose reductase (Rattus norvegicus, UniProt P07943); test: rat lens aldose reductase inhibition, decrease in absorbence at 340 nm; format: biochemical; conditions: DL-glyceraldehyde substrate, 25° C., pH 7.0; read-out: IC50 against rat lens aldose reductase inhibitory activity
Procedure: Lens were collected from rat eyes and homogenized with sodium, potassium phosphate buffer (0.135 M, pH 7.0) containing 0.5 mM of phenyl methyl sulphonyl fluoride and 10 mM of β-mercaptoethanol. The homogenate was centrifuged at 10,000 r.p.m for 30 minutes at 4° C. The supernatant was taken as enzyme source. Enzyme reaction was carried out at 25° C. in a quartz cuvette with a 1 cm light path. The assay mixture contained 100 μL of nicotinamide adenine dinucleotide phosphate tetra sodium salt (from a stock solution of 9.6 mM), 100 μL of DL-glyceraldehyde (from a stock solution of 250 mM), 10 μL of inhibitor dissolved in dimethyl sulphoxide, sodium-potassium-phosphate buffer (0.135 M, pH 7.0) to make up the total volume to 3 mL and the reaction was initiated by the addition of 200 μL of enzyme solution. The enzyme reaction was monitored by the decrease in absorbence at 340 nm and compared with enzyme reaction without inhibitor.

diabetic rats = conditions: via an intragastric tube, compared with ONO-2235; cited from earlier work

| solubility in chloroform and hexane (solubility in solvents; chloroform and hexane) | solubility in methanol, ethyl acetate, dimethyl sulphoxide, diethyl ether, sodium bicarbonate, sodium carbonate and sodium hydroxide solution (solubility in solvents; organic solvents and alkaline solutions) | solubility in water (solubility in solvents; water) | IC50 [1] [µM] | SMILES | suppression of sorbitol accumulation in the red blood cells, the sciatic nerve, and the lens (diabetic rats) |
| --- | --- | --- | --- | --- | --- |
| slightly soluble | soluble | insoluble | 26.2 | CCCCCCOc1cc(O)cc2c1C(=O)C(O)=CC2=O [Compound 1, 2, 6, dihydroxy, 8, hexoxy, 1, 4, naphthaquinone] | – |
| – | – | – | – | O=C(/C=C/c1ccc(O)cc1)c1ccc(O)cc1O [Isoliquiritigenin, isoliquiritigenin] | suppressed sorbitol accumulation in the red blood cells, the sciatic nerve, and the lens as effectively as ONO-2235 |
